Reference: doi:10.1101/2020.12.17.423223v1 (biorxiv, 2020)

Experiments:
Assay in all cases: two-electrode voltage clamp, Xenopus oocytes
Type in all cases: cell-based
[1] = target: T1, Pun-GLC-2/GLC-3 (Parascaris univalens, UniProt A0A894K4V1+A0A894KE58)
T1 construct: full-length subunits co-expressed 1:1 (cRNA) in Xenopus laevis oocytes; heteromeric, pentameric GluCl, stoichiometry unknown
T1 sequence (A0A894KE58 21-448): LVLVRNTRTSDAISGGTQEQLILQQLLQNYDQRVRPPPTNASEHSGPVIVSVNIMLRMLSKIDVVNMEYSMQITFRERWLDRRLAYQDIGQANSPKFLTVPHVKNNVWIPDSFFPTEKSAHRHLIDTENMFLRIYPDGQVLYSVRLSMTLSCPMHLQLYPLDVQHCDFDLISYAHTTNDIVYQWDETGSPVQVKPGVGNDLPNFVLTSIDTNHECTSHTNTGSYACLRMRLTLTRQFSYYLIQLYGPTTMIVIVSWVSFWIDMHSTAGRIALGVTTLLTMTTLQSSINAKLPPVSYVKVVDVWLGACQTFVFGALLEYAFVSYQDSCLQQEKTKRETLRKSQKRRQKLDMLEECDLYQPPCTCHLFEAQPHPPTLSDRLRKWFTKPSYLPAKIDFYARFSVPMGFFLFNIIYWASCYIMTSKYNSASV
T1 sequence (A0A894K4V1 25-485): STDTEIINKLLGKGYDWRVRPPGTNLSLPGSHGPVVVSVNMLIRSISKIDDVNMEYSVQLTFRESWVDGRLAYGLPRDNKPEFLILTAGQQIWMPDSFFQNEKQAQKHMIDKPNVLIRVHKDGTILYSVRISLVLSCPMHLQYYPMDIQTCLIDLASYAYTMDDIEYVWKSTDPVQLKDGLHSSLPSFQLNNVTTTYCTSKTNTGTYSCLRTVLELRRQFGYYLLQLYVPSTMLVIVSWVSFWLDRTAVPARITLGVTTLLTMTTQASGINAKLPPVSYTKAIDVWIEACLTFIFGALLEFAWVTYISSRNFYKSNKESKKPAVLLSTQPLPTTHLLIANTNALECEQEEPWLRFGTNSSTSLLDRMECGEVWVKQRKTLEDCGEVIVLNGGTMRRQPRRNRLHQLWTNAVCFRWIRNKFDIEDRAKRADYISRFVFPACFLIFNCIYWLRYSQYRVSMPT

[2] = target: T2, Cel-GLC-2/GLC-3 (Caenorhabditis elegans, UniProt G5EEZ3+Q17328)
T2 construct: full-length subunits co-expressed 1:1 (cRNA) in Xenopus laevis oocytes; heteromeric, pentameric GluCl, stoichiometry unknown
T2 sequence (Q17328 23-434): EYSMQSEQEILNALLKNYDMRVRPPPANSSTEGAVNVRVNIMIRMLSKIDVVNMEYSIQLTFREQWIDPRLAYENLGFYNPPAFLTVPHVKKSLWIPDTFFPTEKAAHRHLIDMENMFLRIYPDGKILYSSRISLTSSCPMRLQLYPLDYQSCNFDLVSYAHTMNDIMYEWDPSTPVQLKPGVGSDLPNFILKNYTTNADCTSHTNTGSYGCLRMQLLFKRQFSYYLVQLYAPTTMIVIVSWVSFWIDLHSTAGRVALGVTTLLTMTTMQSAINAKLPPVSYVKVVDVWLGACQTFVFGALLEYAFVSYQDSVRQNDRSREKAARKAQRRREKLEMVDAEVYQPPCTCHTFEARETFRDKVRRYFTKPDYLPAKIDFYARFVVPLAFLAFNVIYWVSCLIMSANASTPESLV
T2 sequence (G5EEZ3 23-484): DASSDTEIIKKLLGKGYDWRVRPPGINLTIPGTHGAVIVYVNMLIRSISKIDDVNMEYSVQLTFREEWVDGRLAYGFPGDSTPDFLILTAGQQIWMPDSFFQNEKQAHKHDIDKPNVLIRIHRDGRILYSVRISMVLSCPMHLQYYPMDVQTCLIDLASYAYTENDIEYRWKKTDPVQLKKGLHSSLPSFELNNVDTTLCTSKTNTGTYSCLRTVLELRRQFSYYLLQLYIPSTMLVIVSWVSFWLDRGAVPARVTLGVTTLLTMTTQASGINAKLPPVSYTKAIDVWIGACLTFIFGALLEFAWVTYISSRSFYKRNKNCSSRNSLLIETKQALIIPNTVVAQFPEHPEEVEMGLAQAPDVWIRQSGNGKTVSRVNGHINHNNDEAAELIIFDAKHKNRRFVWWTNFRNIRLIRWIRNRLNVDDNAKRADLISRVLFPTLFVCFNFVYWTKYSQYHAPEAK

[3] = target: T3, Pun-GLC-3 (Parascaris univalens, UniProt A0A894K4V1)
T3 construct: full-length, expressed singly (cRNA) in Xenopus laevis oocytes; homomeric pentameric GluCl
T3 sequence (A0A894K4V1 25-485): T1 sequence (A0A894K4V1 25-485)

[4] = target: T4, Cel-AVR-14B/GLC-2 (Caenorhabditis elegans, UniProt Q17328+Q17369)
T4 construct: full-length subunits co-expressed 1:1 (cRNA) in Xenopus laevis oocytes; heteromeric, pentameric GluCl, stoichiometry unknown; b70 prints CAA04170 for AVR-14B, which b73 gives to AVR-15B
T4 sequence (Q17369 22-430): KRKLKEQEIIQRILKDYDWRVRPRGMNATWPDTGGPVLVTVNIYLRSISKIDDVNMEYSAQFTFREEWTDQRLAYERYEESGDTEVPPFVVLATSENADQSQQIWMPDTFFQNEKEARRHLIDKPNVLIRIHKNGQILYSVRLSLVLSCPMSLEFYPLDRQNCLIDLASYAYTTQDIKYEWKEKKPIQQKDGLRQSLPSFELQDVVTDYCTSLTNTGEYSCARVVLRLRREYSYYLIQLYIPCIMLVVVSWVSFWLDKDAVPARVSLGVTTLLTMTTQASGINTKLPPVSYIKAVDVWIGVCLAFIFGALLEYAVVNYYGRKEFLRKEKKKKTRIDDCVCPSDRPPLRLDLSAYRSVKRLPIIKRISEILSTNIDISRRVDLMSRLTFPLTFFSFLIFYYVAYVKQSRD
T4 sequence (Q17328 23-434): T2 sequence (Q17328 23-434)

[5] = target: T5, Cel-GLC-2 (Caenorhabditis elegans, UniProt Q17328)
T5 construct: full-length, expressed singly (cRNA) in Xenopus laevis oocytes; homomeric pentameric GluCl
T5 sequence (Q17328 23-434): T2 sequence (Q17328 23-434)

[6] = target: T6, Pun-AVR-14B/GLC-2 (Parascaris univalens, UniProt A0A894K7G1+A0A894KE58)
T6 construct: full-length subunits co-expressed 1:1 (cRNA) in Xenopus laevis oocytes; heteromeric, pentameric GluCl, stoichiometry unknown
T6 sequence (A0A894K7G1 19-428): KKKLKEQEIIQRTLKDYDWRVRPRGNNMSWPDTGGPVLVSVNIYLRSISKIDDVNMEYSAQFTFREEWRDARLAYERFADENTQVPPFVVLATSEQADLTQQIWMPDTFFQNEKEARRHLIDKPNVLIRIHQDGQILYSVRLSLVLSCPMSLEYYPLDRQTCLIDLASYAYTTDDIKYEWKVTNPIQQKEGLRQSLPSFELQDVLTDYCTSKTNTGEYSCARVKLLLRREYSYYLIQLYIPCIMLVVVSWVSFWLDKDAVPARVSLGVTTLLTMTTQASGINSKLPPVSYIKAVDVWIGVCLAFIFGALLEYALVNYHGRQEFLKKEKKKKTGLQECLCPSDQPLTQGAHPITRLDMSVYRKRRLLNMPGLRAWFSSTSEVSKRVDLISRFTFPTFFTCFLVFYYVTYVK
T6 sequence (A0A894KE58 21-448): T1 sequence (A0A894KE58 21-448)

[7] = target: T7, Cel-AVR-14B (Caenorhabditis elegans, UniProt Q17369)
T7 construct: full-length, expressed singly (cRNA) in Xenopus laevis oocytes; homomeric pentameric GluCl; b70 prints CAA04170 for AVR-14B, which b73 gives to AVR-15B
T7 sequence (Q17369 22-430): T4 sequence (Q17369 22-430)

For `N[C@@H](CCC(=O)O)C(=O)O` [glutamate], the EC50 [1] was 120 ± 5.7 µM, the EC50 [2] was 46.8 ± 3.7 µM and the EC50 [3] was 1480 ± 111 µM. The EC50 [4] was 20.5 ± 1.3 µM, the EC50 [5] was 215 ± 13.1 µM and the EC50 [6] was 13.6 ± 1.6 µM. It also gave an EC50 [7] of 112 ± 13 µM.
